Key:
[1] = target: T1, TbCatB (Trypanosoma brucei, UniProt Q6R7Z5); assay: TbCatB protease inhibition assay (Z-Phe-Arg-AMC); type: biochemical
T1 construct: made in house
T1 sequence (Q6R7Z5 23-340): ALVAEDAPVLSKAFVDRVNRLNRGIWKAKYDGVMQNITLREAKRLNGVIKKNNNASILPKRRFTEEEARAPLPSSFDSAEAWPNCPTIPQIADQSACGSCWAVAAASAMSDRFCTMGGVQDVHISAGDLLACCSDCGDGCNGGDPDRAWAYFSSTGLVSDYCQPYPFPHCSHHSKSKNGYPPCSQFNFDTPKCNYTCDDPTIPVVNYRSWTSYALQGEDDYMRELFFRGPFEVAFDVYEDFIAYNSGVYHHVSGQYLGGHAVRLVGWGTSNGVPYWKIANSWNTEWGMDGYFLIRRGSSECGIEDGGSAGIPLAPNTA
Procedure: (§1) Recombinant cruzain, rhodesain, TbCatB, falcipain-2 and falcipain-3 were expressed as described previously, [39], [40], [41], [42]. Inhibitor stock solutions were prepared in DMSO and screened at 0.1 µM for cruzain and rhodesain, 1 µM for TbCatB and 50 nM for falcipain-3 (0.5% DMSO in assay). […] Protease inhibition assays for cruzain and rhodesain were carried out in 96 well plate format as described previously. Cruzain (4 nM), rhodesain (4 nM) or TbCatB (258 nM) was incubated with test compound in 100 mM sodium acetate, pH 5.5, containing 5 mM DTT and 0.01% Triton X-100 (buffer A), for 5 min at room temperature (the higher concentration of TbCatB was required due to its lower intrinsic activity against the fluorogenic substrate). Then buffer A containing Z-Phe-Arg-AMC (Bachem) was added to enzyme-compound mixture to give 10 µM substrate in a final assay volume of 200 µL. The rate of free AMC release was measured at excitation and emission wavelengths of 355 and 460 nm, respectively, with a microtiter plate spectrofluorimeter (SpectraMax M5, Molecular Devices) for 3 min. Percentage inhibition of test compound was calculated relative to the DMSO control (0% inhibition control). IC50 values were determined with Prism 4 software (GraphPad, San Diego, CA) using sigmoidal dose-response variable slope model.

[2] = Toxicity toward host BESM cells in the T. cruzi assay; type: cell-based, bovine; details: bovine; highest assay concentration 20 µM
Procedure: (§2) The growth inhibition assay for the intracellular T. cruzi was conducted in 96-well plate format as described previously. Briefly, bovine embryo skeletal muscle (BESM) cells (2×10^3/well), seeded overnight, were infected with CA-I/72 T. cruzi trypomastigotes (2×10^3/well). Sixteen hours post-infection, test compounds (serial dilution concentrations starting from 20 µM) were added and assay plates were incubated for an additional 72 hours at 37°C with 5% CO2. Cells were then washed once in PBS, fixed with 4% paraformaldehyde and stained with DNA fluorescent dye DAPI (4′ 6-diamidino-2-phenylindole). The assay plates were then imaged in the IN Cell Analyzer 2000 (GE Healthcare) with the excitation and emission filters set of 350 nm and 460 nm, respectively, to detect DAPI signals. The feature extraction module in IN Cell Developer Toolbox 1.7 software was used to count host nuclei and parasite kinetoplasts by size difference.
All falcipain-3 inhibitors were also tested against falcipain-2. […] The entire library was examined for cytotoxicity to a mammalian cell line (Jurkat) at a concentration of 10 µM, and those compounds studied in the T. cruzi assay were also evaluated for toxicity (at 20 µM) toward the host BESM cells used in that assay. […]

[3] = target: human cathepsin B; set-up: method as in data provided by Celera Genomics; details: historical data; ref data provided by Celera Genomics; read-out: Ki catB; cited from earlier work
[4] = target: T2, cruzain (Trypanosoma cruzi, UniProt P25779); assay: Cruzain protease inhibition assay (Z-Phe-Arg-AMC); type: biochemical
T2 construct: made in house
Procedure: as §1

[5] = tested on: T. brucei brucei clone 427-221a bloodstream forms; assay: T. brucei brucei growth inhibition assay; type: cell-based; details: Trypanosoma brucei; 40 hours
Procedure: The growth inhibition assay for T. brucei brucei was conducted as described previously. Bloodstream forms of the monomorphic T. brucei brucei clone 427-221a were grown in complete HMI-9 medium containing 10% FBS, 10% Serum Plus medium (Sigma Inc. St. Louis Mo. USA), 50 U/mL penicillin and 50 µg/mL streptomycin (Invitrogen) at 37°C under a humidified atmosphere and 5% CO2. […] 5 µL of each dilution was added to 95 µL of diluted parasites (1×10^4 cells per well) in sterile Greiner 96-well flat white opaque culture plates such that the final DMSO concentration was 0.5%. The 0% inhibition control wells contained 0.5% DMSO while 100% inhibition control wells contained 50 µM thimerosal (Sigma). After compound addition, plates were incubated for 40 hours at 37°C. At the end of the incubation period, 50 µL of CellTiter-Glo™ reagent (Promega Inc., Madison, WI, USA) was added to each well and plates were placed on an orbital shaker at room temperature for 2 min to induce lysis. After an additional 10 min incubation without shaking to stabilize the signal, the ATP-bioluminescence of each well was determined using an Analyst HT plate reader (Molecular Devices, Sunnyvale, CA, USA). Raw values were converted to log10 and percentage inhibition calculated relative to the controls. IC50 curve fittings were performed with Prism 4 software as above.

[6] = target: T3, rhodesain (Trypanosoma brucei rhodesiense, UniProt Q95PM0); assay: Rhodesain protease inhibition assay (Z-Phe-Arg-AMC); type: biochemical
T3 construct: made in house
Procedure: as §1

[7] = Jurkat cell cytotoxicity assay; type: cell-based; details: human, Jurkat cells (clone E6-1), read-out: Cytotoxicity (% inhibition at 10 µM) Jurkat cells
Procedure: Jurkat cells (clone E6-1) were grown in complete RPMI-1640 medium containing 10% FBS, 50 U/mL penicillin and 50 µg/mL streptomycin (Invitrogen) at 37°C under a humidified atmosphere and 5% CO2. For cytotoxicity testing, cells were diluted to 1×10^5 per ml in complete RPMI-1640 medium. Test compound stocks were prepared in 100% DMSO and screened at 10 µM against cells (1×10^4 cells per well) in sterile Greiner 96-well flat white opaque culture plates (0.5% final DMSO concentration). The 0% inhibition control wells contained 0.5% DMSO while 100% inhibition control wells contained 40 µM staurosporine. After compound addition, plates were incubated for 40 hr at 37°C. At the end of the incubation period, 50 µL of CellTiter-Glo™ reagent (Promega Inc., Madison, WI, USA) was added to each well and plates were placed on an orbital shaker at room temperature for 2 min to induce lysis. After a further 10 min incubation without shaking to stabilize the signal, the ATP-bioluminescence of each well was determined using an Analyst HT plate reader (Molecular Devices, Sunnyvale, CA, USA). Calculations of percentage inhibition and IC50 were performed similar to those in the T. brucei brucei assay.

[8] = target: human cathepsin L; set-up: method as in data provided by Celera Genomics; details: historical data; ref data provided by Celera Genomics; read-out: Ki catL; cited from earlier work
[9] = tested on: intracellular T. cruzi (CA-I/72) in BESM cells; assay: T. cruzi amastigote growth inhibition assay; type: cell-based; details: Trypanosoma cruzi; infected BESM cells, 72 hours
Procedure: as §2

T2 sequence (P25779 123-467): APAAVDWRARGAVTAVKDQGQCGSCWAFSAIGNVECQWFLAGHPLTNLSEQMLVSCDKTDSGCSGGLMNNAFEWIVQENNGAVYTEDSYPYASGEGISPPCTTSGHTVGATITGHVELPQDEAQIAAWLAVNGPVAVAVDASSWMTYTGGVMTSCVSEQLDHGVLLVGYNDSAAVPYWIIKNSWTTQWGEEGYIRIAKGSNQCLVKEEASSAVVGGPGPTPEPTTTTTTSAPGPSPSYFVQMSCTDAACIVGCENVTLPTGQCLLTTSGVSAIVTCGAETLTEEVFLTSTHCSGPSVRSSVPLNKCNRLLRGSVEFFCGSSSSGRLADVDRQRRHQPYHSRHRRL
T3 sequence (Q95PM0 entry or part of it): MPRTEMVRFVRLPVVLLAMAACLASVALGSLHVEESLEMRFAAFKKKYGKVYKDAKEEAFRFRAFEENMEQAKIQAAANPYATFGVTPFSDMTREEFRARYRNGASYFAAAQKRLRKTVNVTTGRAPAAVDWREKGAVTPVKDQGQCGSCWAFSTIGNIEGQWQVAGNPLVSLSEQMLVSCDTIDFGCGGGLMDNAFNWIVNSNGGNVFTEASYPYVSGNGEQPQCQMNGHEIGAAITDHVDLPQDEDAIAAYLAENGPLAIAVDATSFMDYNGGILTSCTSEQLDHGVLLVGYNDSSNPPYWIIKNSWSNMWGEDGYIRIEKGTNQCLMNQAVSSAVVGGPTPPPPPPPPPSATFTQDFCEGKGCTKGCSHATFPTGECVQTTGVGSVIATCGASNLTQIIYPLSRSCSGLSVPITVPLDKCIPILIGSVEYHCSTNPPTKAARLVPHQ

Question: With `CCCCC(NC(=O)C(CCC)NC(c1ccc(-c2ccc(S(C)(=O)=O)cc2)cc1)C(F)(F)F)C(=O)c1nnc(-c2ccco2)o1` (stereo not drawn) [Compound 24] as the compound, how does the IC50 [1] read?
Answer: Its IC50 is 50 nM.

Question: What about the GI50 at 72 h [2] of the same compound?
Answer: The GI50 at 72 h was > 20000 nM.

Question: What about the Ki [3] of the same compound?
Answer: The Ki was 1.6 nM.

Question: What about the IC50 [4] of the same compound?
Answer: Its IC50 is 10 nM.

Question: And the GI50 [5]?
Answer: The GI50 was 7000 nM.

Question: And the IC50 [6]?
Answer: The IC50 was 6 nM.

Question: And the cytotoxicity at 40 h, 10 µM [7]?
Answer: The cytotoxicity at 40 h, 10 µM was < 5%.

Question: What about the Ki [8] of the same compound?
Answer: Its Ki is 18 nM.

Question: What about the GI50 [9] of the same compound?
Answer: The GI50 was 7600 nM.

Reference: paper PMC3086806, “Mining a Cathepsin Inhibitor Library for New Antiparasitic Drug Leads” (PLoS Neglected Tropical Diseases, 2011)
